Measured values from ChEMBL document CHEMBL1201862, “PubChem BioAssay data set” (2004).
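1) Cells in 96-well plates. 2) Compound, 48 h, 5 concentrations. 3) Linear interpolation between surrounding doses. 4) Unreached endpoint = highest concentration. Here, GI50 denotes the concentration required for 50% inhibition of growth.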 Activity calls are given as the source filed them. Cut-off read from the data, not from the text of the source: active = GI50 up to about 1.1 µM and inactive = higher.

How the values were obtained:
Experiment in all cases: growth of human tumour cells (NCI), 48 h
[1] = system: MDA-MB-435
[2] = system: SF-295
[3] = system: U-251
[4] = system: LOX IMVI
[5] = system: DU-145
[6] = system: UACC-257
[7] = system: HOP-62
[8] = system: IGROV-1
[9] = system: EKVX
[10] = system: Hs-578T
[11] = system: KM12
[12] = system: RXF 393
[13] = system: MDA-N
[14] = system: A498
[15] = system: 786-0
[16] = system: OVCAR-8
[17] = system: NCI-H522
[18] = system: SK-MEL-28
[19] = system: T47D
[20] = system: MOLT-4

| Compound | GI50 [1] | GI50 [2] | GI50 [3] | GI50 [4] | GI50 [5] | GI50 [6] | GI50 [7] | GI50 [8] | GI50 [9] | GI50 [10] | GI50 [11] | GI50 [12] | GI50 [13] | GI50 [14] | GI50 [15] | GI50 [16] | GI50 [17] | GI50 [18] | GI50 [19] | GI50 [20] |
| --- | --- | --- | --- | --- | --- | --- | --- | --- | --- | --- | --- | --- | --- | --- | --- | --- | --- | --- | --- | --- |
| Nc1ccc2c(c1)N(C(=O)c1cc3cc(NC(=O)c4cc5ccccc5o4)ccc3[nH]1)CC2CCl (stereo not given) | 0.162 µM (active) | 0.0434 µM (active) | 0.106 µM (active) | 0.0398 µM (active) | 0.0254 µM (active) | 0.113 µM (active) | 0.138 µM (active) | 0.108 µM (active) | 0.262 µM (active) | 0.293 µM (active) | 0.115 µM (active) | 0.018 µM (active) | 0.183 µM (active) | 0.16 µM (active) | 0.0638 µM (active) | 0.0397 µM (active) | < 0.01 µM (active) | 0.177 µM (active) | 0.114 µM (active) | 0.045 µM (active) |
| CN(C)c1ccc(/C=N/NC2=N/C(=C\c3ccco3)C(=O)N2)cc1 | > 100 µM (inactive) | > 100 µM (inactive) | > 100 µM (inactive) | > 100 µM (inactive) | > 100 µM (inactive) | > 100 µM (inactive) | > 100 µM (inactive) | > 100 µM (inactive) | > 100 µM (inactive) | > 100 µM (inactive) | > 100 µM (inactive) | > 100 µM (inactive) | > 100 µM (inactive) | > 100 µM (inactive) | > 100 µM (inactive) | > 100 µM (inactive) | > 100 µM (inactive) | > 100 µM (inactive) | > 100 µM (inactive) | > 100 µM (inactive) |
| CCOC(=O)CC[C@H](N)C(=O)N[C@@H](Cc1ccc(N(CCCl)CCCl)cc1)C(=O)OCC | 1.39 µM (inactive) | 3.6 µM (inactive) | 1.94 µM (inactive) | 0.184 µM (active) | 0.324 µM (active) | 1.5 µM (inactive) | 2.37 µM (inactive) | 1.56 µM (inactive) | 2.3 µM (inactive) | 2.16 µM (inactive) | 4.61 µM (inactive) | 0.658 µM (active) | 0.944 µM (active) | 17.7 µM (inactive) | 0.685 µM (active) | 0.891 µM (active) | 1.12 µM (active) | 0.869 µM (active) | 0.718 µM (active) | 0.0345 µM (active) |
| Nc1ccc(Oc2ccc(C34CC5CC6C3CC3CC4C(C5)C6(c4ccc(Oc5ccc(N)c(O)c5)cc4)C3)cc2)cc1O | 3.83 µM (inactive) | 3.58 µM (inactive) | 2.58 µM (inactive) | 2.87 µM (inactive) | 4.73 µM (inactive) | 3.64 µM (inactive) | 4.78 µM (inactive) | 5.14 µM (inactive) | 1.79 µM (inactive) | 17.2 µM (inactive) | 3.69 µM (inactive) | 4.13 µM (inactive) | 3.22 µM (inactive) | 7.36 µM (inactive) | 3.15 µM (inactive) | 0.67 µM (active) | 1.61 µM (inactive) | 7.06 µM (inactive) | 0.652 µM (active) | 2.29 µM (inactive) |
| CC1CSC(=S)N1C(=O)N1C(=S)SCC1C (stereo not given) | 17.2 µM (inactive) | 45.8 µM (inactive) | 18.2 µM (inactive) | 20.4 µM (inactive) | 19.5 µM (inactive) | 19.3 µM (inactive) | 43.4 µM (inactive) | 18.5 µM (inactive) | 28.8 µM (inactive) | 35.7 µM (inactive) | 27.8 µM (inactive) | 12.9 µM (inactive) | 19.6 µM (inactive) | 27.5 µM (inactive) | 27.8 µM (inactive) | 16.7 µM (inactive) | 11.5 µM (inactive) | 14.3 µM (inactive) | 28.6 µM (inactive) | 23.6 µM (inactive) |
| CC(NNC(=O)c1ccncc1)c1cccc(C(F)(F)F)c1 (stereo not given) | > 100 µM (inactive) | > 100 µM (inactive) | > 100 µM (inactive) | > 100 µM (inactive) | > 100 µM (inactive) | > 100 µM (inactive) | > 100 µM (inactive) | > 100 µM (inactive) | > 100 µM (inactive) | > 100 µM (inactive) | > 100 µM (inactive) | > 100 µM (inactive) | > 100 µM (inactive) | > 100 µM (inactive) | > 100 µM (inactive) | > 100 µM (inactive) | > 100 µM (inactive) | > 100 µM (inactive) | > 100 µM (inactive) | > 100 µM (inactive) |
| COC(=O)C1CCC(=O)N1CN(C(C)=O)c1cccc(O)c1 (stereo not given) | > 100 µM (inactive) | > 100 µM (inactive) | > 100 µM (inactive) | > 100 µM (inactive) | > 100 µM (inactive) | > 100 µM (inactive) | > 100 µM (inactive) | > 100 µM (inactive) | > 100 µM (inactive) | > 100 µM (inactive) | > 100 µM (inactive) | > 100 µM (inactive) | > 100 µM (inactive) | > 100 µM (inactive) | > 100 µM (inactive) | > 100 µM (inactive) | > 100 µM (inactive) | > 100 µM (inactive) | > 100 µM (inactive) | > 100 µM (inactive) |
| Cc1ccc2c(c1)CN(C(=O)CCC(=O)OCc1ccccc1)c1ccc(C)cc1CN2C(=O)CCC(=O)OCc1ccccc1 | > 100 µM (inactive) | 98.6 µM (inactive) | > 100 µM (inactive) | > 100 µM (inactive) | > 100 µM (inactive) | > 100 µM (inactive) | > 78 µM (inactive) | > 100 µM (inactive) | > 100 µM (inactive) | 40 µM (inactive) | 99.3 µM (inactive) | > 100 µM (inactive) | > 100 µM (inactive) | > 100 µM (inactive) | > 90.8 µM (inactive) | > 100 µM (inactive) | > 100 µM (inactive) | > 100 µM (inactive) | > 100 µM (inactive) | > 100 µM (inactive) |
| CCn1c(-c2ccc(OC(C)=O)cc2)c(C)c2cc(OC(C)=O)ccc21 [ZINDOXIFENE] | 12.5 µM (inactive) | 24 µM (inactive) | 11.3 µM (inactive) | 11.9 µM (inactive) | 18.5 µM (inactive) | 27 µM (inactive) | 21.3 µM (inactive) | 24 µM (inactive) | 17.9 µM (inactive) | 13.9 µM (inactive) | 12.9 µM (inactive) | 6.82 µM (inactive) | 17.3 µM (inactive) | 23.6 µM (inactive) | 21.9 µM (inactive) | 20 µM (inactive) | 17.4 µM (inactive) | 16.5 µM (inactive) | 19.4 µM (inactive) | 8.49 µM (inactive) |
